The structures appear in SMILES notation. pIC50: −log10 of the molar value. Counter-ions that a name gives are not always drawn.

Broadly, the pIC50 is the IC50 on a negative log10 scale, so that one unit is a factor of ten. High values mean a low IC50, low ones a high IC50.

For the test, the target named is T1, GSK3β (Homo sapiens, UniProt P49841).
T1 construct: purchased Upstate xy
T1 sequence (P49841 whole entry, species assumed): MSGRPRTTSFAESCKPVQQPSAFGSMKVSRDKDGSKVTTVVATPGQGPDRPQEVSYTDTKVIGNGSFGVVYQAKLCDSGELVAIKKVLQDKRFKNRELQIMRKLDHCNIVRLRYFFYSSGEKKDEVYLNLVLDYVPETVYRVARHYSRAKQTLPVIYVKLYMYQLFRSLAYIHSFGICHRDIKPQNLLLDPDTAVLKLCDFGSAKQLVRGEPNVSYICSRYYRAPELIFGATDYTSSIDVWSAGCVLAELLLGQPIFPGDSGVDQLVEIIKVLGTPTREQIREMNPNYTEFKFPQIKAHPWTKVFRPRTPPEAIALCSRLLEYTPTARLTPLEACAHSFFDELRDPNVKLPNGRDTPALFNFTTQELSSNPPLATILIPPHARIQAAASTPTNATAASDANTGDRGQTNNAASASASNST
Description: GSK3β biochemical in vitro assay (fluorescence, NADH-coupled). The following applies: 5 nM GSK3β, 40 μM substrate GSM, 50 μM ATP, 30° C., 2 hours. The protocol: The inhibitory activity of active substances is determined in a biochemical assay. The ingredients required for this purpose are mixed in a black 384-well microtitre plate with transparent base (from Greiner, catalogue number 781092). The requirements in this connection for each well of the 384-well microtitre plate are 5 nM GSK3β (from Upstate, catalogue number xy), 40 μM GSK3B substrate GSM (sequence H-RRRPASVPPSPSLSRHS-(pS)-HQRR, from Upstate, catalogue number 2-533), 30 μM nicotinamide adenine dinucleotide NADH (Roche Diagnostics, catalogue number 10107735), 50 μM adenosine triphosphate ATP (from Sigma, catalogue number A7966), and 2 mM phosphoenolpyruvate (from Roche, catalogue number 128112). The required reaction buffer in which the biochemical reaction takes place consists of 50 mM Trizma hydrochloride tris-HCl pH: 7.5 (from Sigma, catalogue number T3253), 5 mM magnesium chloride MgCl2 (from Sigma, catalogue number M8266), 0.2 mM DL-dithiothreitol DTT (from Sigma, catalogue number D9779), 2 mM ethylenediaminethertetraacid EDTA (from Sigma, catalogue number E6758), 0.01% Triton X-100 (from Sigma, catalogue number T8787) and 0.05% bovine serum albumin BSA (from Sigma, catalogue number B4287).
Active substances are dissolved in dimethyl sulphoxide DMSO (from Sigma, catalogue number D8418) in a concentration of 10 mM. Active substances are added in serial concentrations of 10 μM, 1 μM, 0.1 μM, 0.01 μM, 0.001 μM, 0.0001 μM, 0.00001 μM, 0.000001 μM to the mixtures of the biochemical reaction. As control, dimethyl sulphoxide is added instead of substance in a final concentration of 0.1%.
The reaction is incubated at 30° C. for 2 hours and then the resulting fluorescence is measured in a Tecan Safire-XFLUOR4 instrument, version V4.50 (serial number 12901300283) with the specifications: measurement mode—fluorescence measured from below, extinction wavelength 340 nm, emission wavelength 465 nm, slit width extinction 5 nm, slit width emission 5 nm, gain mode 120, delay 0 μs, number of light flashes per measurement 3, and an integration time of 40 μs.
The activity of the active substances is calculated in relation to these 0% and 100%.
Molecule `N#Cc1ccc(NCCNc2nc(-c3ccc(C(F)(F)F)cc3)cc3nccn23)nc1` [Example 7, 6-{[2-({7-[4-(Trifluoromethyl)phenyl]imidazo[1,2-c]pyrimidin-5-yl}amino)ethyl]amino}-nicotinonitrile] had a pIC50 of 6.74.

`CN1CCN(C(=O)c2cn3c(NCCNc4ccc(C#N)cn4)nc(-c4ccc(Cl)cc4Cl)cc3n2)CC1` [Example 111] showed a pIC50 of 7.05.

`Nc1nc(NCCNc2nc(-c3ccc(Cl)cc3Cl)cc3ncnn23)sc1C(=O)C(F)(F)F` [Example 203] had a pIC50 of 8.52.

`N#Cc1ccc(NCCNc2nc(-c3ccc(C(F)(F)F)cc3)cc3nc(C(=O)NCCO)cn23)nc1` [Example 117] gave a pIC50 of 7.03. This pIC50 is 1.49 log units lower than that of the molecule before.

On to `N#Cc1ccc(NCCNc2nc(-c3ccc(C(F)(F)F)cc3)cc3ncnn23)nc1` [Example 93, 6-{[2-({7-[4-(Trifluoromethyl)phenyl][1,2,4]triazolo[1,5-c]pyrimidin-5-yl}amino)ethyl]amino}-nicotinonitrile], for which the pIC50 is 7.14.

In turn, `N#Cc1ccc(NC2CCCN(c3nc(-c4ccc(Cl)cc4Cl)cc4nccn34)C2)nc1` (single isomer, unassigned) [Ent. B 123, 6-({1-[7-(2,4-dichlorophenyl)imidazo[1,2-c]pyrimidin-5-yl]piperidin-3-yl}amino)pyridine-3-carbonitrile trifluoroacetate] had a negative logarithm of the IC50 (pIC50) of 7.66.

For `Nc1nc(NCCNc2nc(-c3ccc(Cl)cc3Cl)cc3nccn23)sc1C(=O)C(F)(F)F` [Example 129], the negative logarithm of the IC50 (pIC50) is 8.15.

`Nc1nc(NCCNc2nc(-c3ccc(Cl)cc3Cl)cc3nc(CN4CCOCC4)nn23)ccc1C(=O)C(F)(F)F` [Example 194] gave a negative logarithm of the IC50 (pIC50) of 9.15.

On to `O=[N+]([O-])c1ccc(NCCNc2nc(-c3ccc(Cl)cc3Cl)cc3nccn23)nc1` [Example 6, N-[7-(2,4-Dichlorophenyl)imidazo[1,2-c]pyrimidin-5-yl]-N′-(5-nitropyridin-2-yl)ethane-1,2-diamine], for which the pIC50 was 7.36. Against the preceding molecule, the pIC50 is 1.79 log units lower.

In turn, `N#Cc1ccc(NCCNc2nc(-c3ccc(C(F)(F)F)cc3)cc3nc(C(=O)NC(CO)CO)cn23)nc1` [Example 120] had a pIC50 of 6.91.

In turn, `CC(C)Cn1cc(-c2cc3nccn3c(NCCNc3ccc([N+](=O)[O-])c(N)n3)n2)cn1` [Example 63] had a pIC50 of 6.76.

Regarding `N#Cc1ccc(NCCNc2nc(-c3ccc(Cl)cc3Cl)cc3nc(CN4CCOCC4)cn23)nc1` [Example 145, 6-[(2-{[7-(2,4-Dichlorophenyl)-2-(morpholin-4-ylmethyl)imidazo[1,2-c]pyrimidin-5-yl]amino}-ethyl)amino]pyridine-3-carbonitrile trifluoroacetate], the pIC50 was 7.21.

Turning to `Nc1nc(NCCNc2nc(-c3ccc(C(F)(F)F)cc3)cc3nccn23)ccc1[N+](=O)[O-]` [Example 66], the pIC50 is 6.71.

In turn, `Cc1cc(C)cc(-c2cc3nccn3c(NCCNc3ccc([N+](=O)[O-])c(N)n3)n2)c1` [Example 36] had a pIC50 of 7.82.

`Nc1nc(NCCNc2nc(-c3ccc(Cl)cc3Cl)cc3nc(CN4CCOCC4)cn23)ccc1[N+](=O)[O-]` [Example 81, N^6-(2-{[7-(2,4-Dichlorophenyl)-2-(morpholin-4-ylmethyl)imidazo[1,2-c]pyrimidin-5-yl]amino}ethyl)-3-nitropyridine-2,6-diamine trifluoroacetate] had a pIC50 of 8.10.

In the case of `CC(=O)c1sc(NC2CCCN(c3nc(-c4ccc(Cl)cc4Cl)cc4nccn34)C2)nc1N` (centres unmarked) [Example 128, 1-[4-amino-2-({1-[7-(2,4-dichlorophenyl)imidazo[1,2-c]pyrimidin-5-yl]piperidin-3-yl}amino)-1,3-thiazol-5-yl]ethanone trifluoroacetate], the pIC50 was 8.52.

As for `N#Cc1ccc(NCCNc2nc(-c3ccc(Cl)cc3Cl)cc3ncc(Br)n23)nc1` [Example 153, 6-[(2-{[3-Bromo-7-(2,4-dichlorophenyl)imidazo[1,2-c]pyrimidin-5-yl]amino}ethyl)amino]-pyridine-3-carbonitrile], the pIC50 was 7.85.
